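1) Cells in 96-well plates. 2) Compound, 48 h, 5 concentrations. 3) Linear interpolation between surrounding doses. 4) Unreached endpoint = highest concentration. At the TGI there is no net growth.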
Experiments:
Experiment in all cases: NCI-60 cell line screen, 48 h
COLO 205 colon = tested on: COLO 205 colon
EKVX NSCLC = tested on: EKVX NSCLC
PC-3 prostate = tested on: PC-3 prostate
SN12C renal = tested on: SN12C renal
MALME-3M melanoma = tested on: MALME-3M melanoma
HOP-62 NSCLC = tested on: HOP-62 NSCLC
NCI-H522 lung = tested on: NCI-H522 lung
HL-60(TB) leukemia = tested on: HL-60(TB) leukemia
NCI-H23 lung = tested on: NCI-H23 lung
OVCAR-8 ovarian = tested on: OVCAR-8 ovarian
MOLT-4 leukemia = tested on: MOLT-4 leukemia
HCT-15 colon = tested on: HCT-15 colon
DU-145 prostate = tested on: DU-145 prostate
SF-295 CNS = tested on: SF-295 CNS
UACC-257 melanoma = tested on: UACC-257 melanoma
MDA-MB-231 breast = tested on: MDA-MB-231 breast
BT-549 breast = tested on: BT-549 breast
UO-31 renal = tested on: UO-31 renal
OVCAR-4 ovarian = tested on: OVCAR-4 ovarian

Compound | TGI (COLO 205 colon) [µM] | TGI (EKVX NSCLC) [µM] | TGI (PC-3 prostate) [µM] | TGI (SN12C renal) [µM] | TGI (MALME-3M melanoma) [µM] | TGI (HOP-62 NSCLC) [µM] | TGI (NCI-H522 lung) [µM] | TGI (HL-60(TB) leukemia) [µM] | TGI (NCI-H23 lung) [µM] | TGI (OVCAR-8 ovarian) [µM] | TGI (MOLT-4 leukemia) [µM] | TGI (HCT-15 colon) [µM] | TGI (DU-145 prostate) [µM] | TGI (SF-295 CNS) [µM] | TGI (UACC-257 melanoma) [µM] | TGI (MDA-MB-231 breast) [µM] | TGI (BT-549 breast) [µM] | TGI (UO-31 renal) [µM] | TGI (OVCAR-4 ovarian) [µM]
COCCN(C(C)=O)C1CCC2(SCCS2)c2[nH]c3ccccc3c21 (stereo not drawn) | > 100 | > 100 | > 100 | > 100 | > 100 | > 100 | > 100 | > 100 | > 100 | > 100 | > 100 | > 100 | > 100 | > 100 | > 100 | > 100 | > 100 |  | 
O=C(/C=C/c1csc(-c2ccccc2)n1)NCc1ccc(C(=O)NCCc2ccccc2)cc1 | > 100 | > 100 | > 100 | > 100 | > 100 | 6.86 | > 100 |  | > 100 | 63 | > 100 | > 100 | > 100 | 30.9 | > 100 | 55.6 | > 100 | > 100 | > 100
CC(=O)CCCCC(=O)Nc1ccc(CC(NC(=O)OC(C)(C)C)C(=O)NCC(=O)OCc2ccccc2)cc1 (stereo not drawn) | 34.7 | > 100 | 27.5 | 64.4 | 40.4 | 26.8 | 57.9 | 43.6 | 76.6 | 39.7 | 66.4 | > 100 | 88.5 | 35.6 |  | 48.3 | 28.6 | 39.2 | 27.6
CCOC(=O)C1=[N+]([O-])OC2=C(O)CCCC21 (stereo not drawn) | > 100 | > 100 | > 100 | > 100 | > 100 | > 100 | > 100 |  | > 100 | > 100 | > 100 | > 100 | > 100 | > 100 | > 100 | > 100 | > 100 | > 100 | > 100
COC12OC3(C4OC41)C(C(=O)O[C@H]3CO[Si](C)(C)C(C)(C)C)C2C(=O)Oc1ccccc1 (stereo partly drawn) | > 100 | > 100 | > 100 | > 100 | > 100 | > 100 | > 100 |  | > 100 | > 100 | > 100 | > 100 | > 100 | > 100 | > 100 | > 100 | > 100 | > 100 | > 100
Nc1ncnc2ccc(Sc3ccc4ncnc(N)c4c3)cc12 | > 100 | > 100 | > 100 | > 100 | > 100 | > 100 |  | > 100 |  | > 100 | > 100 | > 100 | > 100 | > 100 | > 100 | > 100 | > 100 | > 100 | > 100
CSc1ncc2c(C#N)c3sc4ccccc4n3c(=O)c2n1 | > 100 | > 100 | > 100 | > 100 | > 100 | > 100 |  | > 100 | > 100 | > 100 | > 100 | > 100 | > 100 | > 100 | > 100 | > 100 | > 100 | > 100 | > 100
S=c1sc2c(s1)SCCCCSCCCCSc1sc(=S)sc1SCCCCSCCCCS2 | > 100 | > 100 | > 100 | > 100 | > 100 | > 100 | > 100 | > 100 | > 100 | > 100 | > 100 | > 100 | > 100 | > 100 | > 100 | > 100 | > 100 | > 100 | 
O=C(/C=C(\O)c1ccccc1)C(=O)NNc1ccc([N+](=O)[O-])cc1[N+](=O)[O-] | 32.3 | 56.3 | 44.9 | 31.8 | 82.4 | 37.8 | 82.4 |  | 47.2 | 53.6 | 38.3 | 35.4 | 32.9 | 29.8 | 99.8 | 67.6 | 48.2 | 27.5 | 95
CCOC(=O)C1(C(=O)OCC)Nc2cccnc2N(C)N1 | 24.2 |  | 67.5 | 36 | > 100 | > 100 |  | 58 | 42.1 | 40 | 55.3 | 36.2 | 42.5 | > 100 | 32.3 | 40.4 | > 100 | 31.8 | 34.3
N=c1oc2cc(O)ccc2cc1C(=O)NCc1ccccc1 | 25.4 | > 100 | > 100 | 48.8 | 58.7 | > 100 | 39.1 |  | 58.7 | 68.1 | 53.3 | > 100 | 56.4 | > 100 | > 100 | 65.5 | 71.1 | > 100 | > 100
O=C(Cc1ccccc1)NNc1nc(NNC(=O)c2ccncc2)nc(Nc2ccc([N+](=O)[O-])cc2)n1 | > 10 | > 10 | > 10 | > 10 | > 10 | > 10 | > 10 |  | > 10 | > 10 | > 10 | > 10 | > 10 | > 10 | > 10 | > 10 | > 10 | > 10 | > 10
COc1ccc2c(C)cc(N/N=C(\C)C=O)nc2c1 | 30.6 | 32.8 | 24.2 | 26.8 | 28 | 27.1 | 29.6 |  | 24.8 | 25 | 15.9 | 15.2 | 24.7 | 28.8 | 33.9 | 24 | 29.3 | 26.4 | 25.5
CC1CNc2ccccc2N=C1NN (stereo not drawn) | > 100 | > 100 | > 100 | > 100 | > 100 | > 100 | > 100 | > 24.8 | > 100 | > 100 |  | > 100 | > 100 | > 100 | > 100 | > 100 | > 100 | > 100 | > 100
COc1cc(/C=C/C(=O)c2ccc(NS(=O)(=O)c3cc([N+](=O)[O-])ccc3C)cc2)cc(OC)c1OC | 14.9 | 17 | 19.5 | 4.52 |  | 11.4 |  | 11.1 | 11 | 7.97 | 6.58 | 13.4 | 10.2 | 16.4 | 21.9 | 7.39 | 14.4 | 30.4 | 13.5
NC1CC(=O)c2sc(I)cc21 (stereo not drawn) | > 100 | > 100 | > 100 | > 100 | > 100 | > 100 |  | 78.7 |  | > 100 | > 100 | > 100 | > 100 |  | > 100 | > 100 | > 100 | > 100 | 
CC(C)(Br)C(Br)CCC(C)(Br)C(Br)CO (stereo not drawn) | > 10 | > 10 | > 10 | > 10 | > 10 | > 10 | > 10 |  | > 10 | > 10 | > 10 | > 10 | > 10 | > 10 | > 10 | > 10 | > 10 | > 10 | > 10
CC(=O)N1C(=O)/C(=C\C(=O)c2ccc([N+](=O)[O-])cc2)c2ccccc21 | 41.1 | 51.6 | 58.4 | 35 | 45.9 | > 100 | 30.9 |  | 88.7 | > 100 | 51.6 | 32.1 | > 100 | > 100 | 40.9 | 84.5 | 42.1 | 63 | 34.5
O=[N+]([O-])C(C(Cl)=C(Cl)Cl)=C(N(Cc1ccccc1)Cc1ccccc1)N(Cc1ccccc1)Cc1ccccc1 | > 100 | > 100 | > 100 | > 100 | > 100 | > 100 | > 100 | 78 | > 100 | > 100 | > 100 | > 100 | > 100 | > 100 | > 100 | > 100 | > 100 | > 100 | 
[N-]=[N+]=Nc1c(C=O)c(=O)n2c3c(cccc13)CCC2 | 4.63 | 50.5 | 27.2 | 37.5 | 4.26 | 35.2 |  | > 100 | 12.2 | 17.8 | 4.26 | 11.5 | 21 | > 76.6 | 10 | 32.1 | 6.07 | 6.39 | 8.49

Reference: PubChem BioAssay (NCI)
